Patent US20230002374A1, “GPR52 MODULATOR COMPOUNDS” (Heptares Therapeutics Limited, priority 2019, published 2023)
Like-named read-outs stand apart in the source and are kept apart here.

Molecular target: human GPR52 (Homo sapiens, UniProt Q9Y2T5)
Experiment: GPR52 Agonist Functional cAMP Assay;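 note: HEKf cells transduced with GPR52 BacMam for 24 h, 2000 per well, exposed to compounds 30 min at 37° C with 0.5 mM IBMX, cAMP read by HTRF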
Settings: for EC50: pEC50 average, HEKf cells infected with human GPR52 BacMam virus, cAMP HTRF, 30 min at 37° C.
[1] = maximal response normalised to DMSO (0%) and maximal compound 7m (J. Med. Chem., 2014, 57, 5226) response (100%)

Sequence of human GPR52 (Q9Y2T5 whole entry): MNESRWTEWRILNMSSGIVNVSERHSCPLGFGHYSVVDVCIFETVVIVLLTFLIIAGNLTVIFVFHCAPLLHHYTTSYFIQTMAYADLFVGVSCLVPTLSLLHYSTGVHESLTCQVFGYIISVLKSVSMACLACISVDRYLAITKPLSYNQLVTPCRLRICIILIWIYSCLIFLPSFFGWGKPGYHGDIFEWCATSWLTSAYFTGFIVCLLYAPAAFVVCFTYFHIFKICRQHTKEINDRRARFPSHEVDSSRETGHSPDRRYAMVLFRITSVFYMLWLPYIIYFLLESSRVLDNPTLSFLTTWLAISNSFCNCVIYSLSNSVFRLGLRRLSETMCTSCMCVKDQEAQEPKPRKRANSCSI
Description: Following BacMam infection, cells were pelleted by centrifugation (335 g, 5 min), resuspended in cell freezing medium (Sigma) and frozen at −150° C. until required. On experiment day, 25 nL GPR52 compound dilutions, prepared in DMSO, were stamped onto proxiplates (PerkinElmer) by a LabCyte ECHO acoustic dispenser. Frozen cells were thawed and resuspended in assay stimulation buffer (Cisbio) containing 0.5 mM 3-iso-butyl-1-methylxanthine (IBMX, Sigma) to achieve a density of 2000 cells per well. 10 μl cells were added to assay plates using a Multidrop Combi Reagent Dispenser (ThermoFisher) before centrifugation (335 g, 1 min). Cells were incubated with compounds at 37° C. for 30 min prior to addition of cAMP detection reagents (HiRange cAMP kit, Cisbio) which were prepared according to the manufacturer's instructions. Plates were shaken for 1 h at room temperature before reading on a PHERAstar FS plate reader (BMG Labtech) using standard HTRF settings.

SMILES	Emax [1]	EC50	Emax
Cc1nn(-c2ccnc(C(O)c3cc(F)cc(C(F)(F)F)c3)c2)c2c1C(=O)NCC2 (single isomer, unassigned) [117 Isomer 1, 1-(2-((3-fluoro-5-(trifluoromethyl)phenyl)(hydroxy)methyl)pyridin-4-yl)-3-methyl-1,5,6,7-tetrahydro-4H-pyrazolo[4,3-c]pyridin-4-one]	83%	251 nM	–
Cc1nn(-c2cc(C(O)c3cc(F)cc(C(F)(F)F)c3)ccn2)c2c1C(=O)NCC2 (single isomer, unassigned) [118 Isomer 1, 1-(4-((3-fluoro-5-(trifluoromethyl)phenyl)(hydroxy)methyl)pyridin-2-yl)-3-methyl-1,5,6,7-tetrahydro-4H-pyrazolo[4,3-c]pyridin-4-one]	94%	126 nM	–
CC1Cc2c(cnn2-c2ccnc(Cc3cc(F)cc(C(F)(F)F)c3)c2)C(=O)N1 (single isomer, unassigned) [Example 40 Isomer 1, 1-(2-(3-fluoro-5-(trifluoromethyl)benzyl)pyridin-4-yl)-6-methyl-1,5,6,7-tetrahydro-4H-pyrazolo[4,3-c]pyridin-4-one]	95%	31.6 nM	–
Cc1cc(Cc2ccnc(-n3ncc4c3CCNC4=O)c2)cnc1F [Example 6, 1-(4-((6-fluoro-5-methylpyridin-3-yl)methyl)pyridin-2-yl)-1,5,6,7-tetrahydro-4H-pyrazolo[4,3-c]pyridin-4-one]	82%	501 nM	–
Cc1cc(Cc2ccnc(-n3ncc4c3CCN(C)C4=O)c2)cnc1F [Example 7, 1-(4-((6-fluoro-5-methylpyridin-3-yl)methyl)pyridin-2-yl)-5-methyl-1,5,6,7-tetrahydro-4H-pyrazolo[4,3-c]pyridin-4-one]	83%	200 nM	–
O=C1NCCc2nn(-c3cc(Cc4cccc(C(F)(F)F)c4)ccn3)cc21 [Example 8, 2-(4-(3-(trifluoromethyl)benzyl)pyridin-2-yl)-2,5,6,7-tetrahydro-4H-pyrazolo[4,3-c]pyridin-4-one]	75%	316 nM	–
O=C1NCCCc2c1cnn2-c1cc(Cc2cc(F)cc(C(F)(F)F)c2)ccn1 [Example 10, 1-(4-(3-fluoro-5-(trifluoromethyl)benzyl)pyridin-2-yl)-5,6,7,8-tetrahydropyrazolo[4,3-c]azepin-4(1H)-one]	90%	7.94 nM	–
O=C1NCCCc2c1cnn2-c1cc(Cc2cccc(C(F)(F)F)c2)ccn1 [Example 11, 1-(4-(3-(trifluoromethyl)benzyl)pyridin-2-yl)-5,6,7,8-tetrahydropyrazolo[4,3-c]azepin-4(1H)-one]	86%	63.1 nM	–
O=C1NCCOc2c1cnn2-c1cc(Cc2cccc(C(F)(F)F)c2)ccn1 [Example 13, 1-(4-(3-(trifluoromethyl)benzyl)pyridin-2-yl)-6,7-dihydro-1H-pyrazolo[4,3-f][1,4]oxazepin-4(5H)-one]	89%	25.1 nM	–
O=C1NCCOc2c1cnn2-c1cc(Cc2cc(F)cc(C(F)(F)F)c2)ccn1 [Example 14, 1-(4-(3-fluoro-5-(trifluoromethyl)benzyl)pyridin-2-yl)-6,7-dihydro-1H-pyrazolo[4,3-f][1,4]oxazepin-4(5H)-one]	103%	10 nM	–
O=C1NCCc2c1cnn2-c1cc(Cc2cc(F)cc(C(F)(F)F)c2)cnn1 [Example 15, 1-(5-(3-fluoro-5-(trifluoromethyl)benzyl)pyridazin-3-yl)-1,5,6,7-tetrahydro-4H-pyrazolo[4,3-c]pyridin-4-one]	95%	126 nM	–
O=C1NCCc2c1cnn2-c1cnnc(Cc2cc(F)cc(C(F)(F)F)c2)c1 [Example 17, 1-(6-(3-fluoro-5-(trifluoromethyl)benzyl)pyridazin-4-yl)-1,5,6,7-tetrahydro-4H-pyrazolo[4,3-c]pyridin-4-one]	96%	1260 nM	–
O=C1NCCc2c1cnn2-c1cc(Oc2cc(F)cc(C(F)(F)F)c2)ccn1 [Example 18, 1-(4-(3-fluoro-5-(trifluoromethyl)phenoxy)pyridin-2-yl)-1,5,6,7-tetrahydro-4H-pyrazolo[4,3-c]pyridin-4-one]	82%	79.4 nM	–
O=C1NCCc2c1cnn2-c1ccnc(Cc2ccc(Cl)cc2)c1 [Example 19, 1-(2-(4-chlorobenzyl)pyridin-4-yl)-1,5,6,7-tetrahydro-4H-pyrazolo[4,3-c]pyridin-4-one]	–	631 nM	73%
O=C1NCCc2c1cnn2-c1ccnc(Cc2cc(F)cc(Cl)c2)c1 [Example 20, 1-(2-(3-chloro-5-fluorobenzyl)pyridin-4-yl)-1,5,6,7-tetrahydro-4H-pyrazolo[4,3-c]pyridin-4-one]	101%	158 nM	–
O=C1NCCc2c1cnn2-c1ccnc(Cc2cc(F)cc(F)c2)c1 [Example 21, 1-(2-(3,5-difluorobenzyl)pyridin-4-yl)-1,5,6,7-tetrahydro-4H-pyrazolo[4,3-c]pyridin-4-one]	100%	1260 nM	–
O=C1NCCc2c1cnn2-c1ccnc(Cc2cccc(C(F)(F)F)c2)c1 [Example 22, 1-(2-(3-(trifluoromethyl)benzyl)pyridin-4-yl)-1,5,6,7-tetrahydro-4H-pyrazolo[4,3-c]pyridin-4-one]	91%	200 nM	–

SMILES	Emax [1]	EC50	Emax
O=C1NCCc2c1cnn2-c1ccnc(Cc2ccc(F)c(C(F)(F)F)c2)c1 [Example 23, 1-(2-(4-fluoro-3-(trifluoromethyl)benzyl)pyridin-4-yl)-1,5,6,7-tetrahydro-4H-pyrazolo[4,3-c]pyridin-4-one]	90%	158 nM	–
O=C1NCCc2c1cnn2-c1ccnc(Cc2cc(F)c(F)c(F)c2)c1 [Example 24, 1-(2-(3,4,5-trifluorobenzyl)pyridin-4-yl)-1,5,6,7-tetrahydro-4H-pyrazolo[4,3-c]pyridin-4-one]	95%	316 nM	–
O=C1NCCc2c1cnn2-c1ccnc(Cc2ccc(F)c(Cl)c2)c1 [Example 25, 1-(2-(3-chloro-4-fluorobenzyl)pyridin-4-yl)-1,5,6,7-tetrahydro-4H-pyrazolo[4,3-c]pyridin-4-one]	89%	158 nM	–
Cc1cc(F)cc(Cc2cc(-n3ncc4c3CCNC4=O)ccn2)c1 [Example 26, 1-(2-(3-fluoro-5-methylbenzyl)pyridin-4-yl)-1,5,6,7-tetrahydro-4H-pyrazolo[4,3-c]pyridin-4-one]	95%	79.4 nM	–
O=C1NCCc2c1cnn2-c1ccnc(Cc2cc(Cl)cc(C(F)(F)F)c2)c1 [Example 27, 1-(2-(3-chloro-5-(trifluoromethyl)benzyl)pyridin-4-yl)-1,5,6,7-tetrahydro-4H-pyrazolo[4,3-c]pyridin-4-one]	90%	79.4 nM	–
Cc1cc(Cc2cc(-n3ncc4c3CCNC4=O)ccn2)cc(C(F)(F)F)c1 [Example 28, 1-(2-(3-methyl-5-(trifluoromethyl)benzyl)pyridin-4-yl)-1,5,6,7-tetrahydro-4H-pyrazolo[4,3-c]pyridin-4-one]	88%	100 nM	–
O=C1NCCc2c1cnn2-c1ccnc(Cc2cccc(C(F)(F)F)c2F)c1 [Example 29, 1-(2-(2-fluoro-3-(trifluoromethyl)benzyl)pyridin-4-yl)-1,5,6,7-tetrahydro-4H-pyrazolo[4,3-c]pyridin-4-one]	57%	2510 nM	–
O=C1NCCc2c1cnn2-c1ccnc(Cc2cc(C(F)(F)F)ccc2F)c1 [Example 30, 1-(2-(2-fluoro-5-(trifluoromethyl)benzyl)pyridin-4-yl)-1,5,6,7-tetrahydro-4H-pyrazolo[4,3-c]pyridin-4-one]	77%	794 nM	–
O=C1NCCc2c1cnn2-c1ccnc(Cc2cc(Cl)cc(Cl)c2)c1 [Example 31, 1-(2-(3,5-dichlorobenzyl)pyridin-4-yl)-1,5,6,7-tetrahydro-4H-pyrazolo[4,3-c]pyridin-4-one]	95%	126 nM	–
O=C1NCCc2c1cnn2-c1ccnc(Cc2ccc(C(F)(F)F)cc2)c1 [Example 32, 1-(2-(4-(trifluoromethyl)benzyl)pyridin-4-yl)-1,5,6,7-tetrahydro-4H-pyrazolo[4,3-c]pyridin-4-one]	61%	398 nM	–
N#Cc1cc(Cc2cc(-n3ncc4c3CCNC4=O)ccn2)cc(C(F)(F)F)c1 [Example 33, 3-((4-(4-oxo-4,5,6,7-tetrahydro-1H-pyrazolo[4,3-c]pyridin-1-yl)pyridin-2-yl)methyl)-5-(trifluoromethyl)benzonitrile]	58%	3160 nM	–
O=C1NCCc2c1cnn2-c1ccnc(Cc2cc(C(F)(F)F)cc(C(F)(F)F)c2)c1 [Example 34, 1-(2-(3,5-bis(trifluoromethyl)benzyl)pyridin-4-yl)-1,5,6,7-tetrahydro-4H-pyrazolo[4,3-c]pyridin-4-one]	54%	1000 nM	–
O=C(c1cc(F)cc(C(F)(F)F)c1)c1cc(-n2ncc3c2CCNC3=O)ccn1 [Example 35, 1-(2-(3-fluoro-5-(trifluoromethyl)benzoyl)pyridin-4-yl)-1,5,6,7-tetrahydro-4H-pyrazolo[4,3-c]pyridin-4-one]	40%	3160 nM	–
O=C1NCCc2c1cnn2-c1ccnc(C(O)c2cc(F)cc(C(F)(F)F)c2)c1 (stereo not drawn) [Example 36, 1-(2-((3-fluoro-5-(trifluoromethyl)phenyl)(hydroxy)methyl)pyridin-4-yl)-1,5,6,7-tetrahydro-4H-pyrazolo[4,3-c]pyridin-4-one]	92%	501 nM	–
O=C1NCCc2c1cnn2-c1ccnc(C(F)c2cc(F)cc(C(F)(F)F)c2)c1 (stereo not drawn) [Example 37, 1-(2-(fluoro(3-fluoro-5-(trifluoromethyl)phenyl)methyl)pyridin-4-yl)-1,5,6,7-tetrahydro-4H-pyrazolo[4,3-c]pyridin-4-one]	93%	126 nM	–
O=C1NCCc2c1cnn2-c1ccnc(C(F)(F)c2cc(F)cc(C(F)(F)F)c2)c1 [Example 38, 1-(2-(difluoro(3-fluoro-5-(trifluoromethyl)phenyl)methyl)pyridin-4-yl)-1,5,6,7-tetrahydro-4H-pyrazolo[4,3-c]pyridin-4-one]	55%	631 nM	–
